Experiments:
[1] = biological target: Recombinant E. coli β-glucuronidase (Escherichia coli, UniProt P05804); experiment: Trapping of FITC-trap-glu on coated β-glucuronidase detected by anti-FITC antibody ELISA; type: biochemical; details: β-glucuronidase and BSA about 2 μg/well, serial dilutions, about 60 mins
Procedure: Recombinant E. coli β-glucuronidase (about 2 μg/well) and bovine serum albumin (about 2 μg/well) were coated in 96 well microtiter plates and blocked with about 2% of skin milk. Serial dilutions of the FITC-trap-glu probe in phosphate-buffered saline were added to the wells of the microtiter plates at room temperature for about 60 mins. The plates were washed 3 times with phosphate-buffered saline. The plates were stained with about 1 μg/mL of an anti-FITC antibody followed by about 1 μg/mL of horse-radish peroxidase-conjugated anti-mouse IgG. The plates were washed and bound peroxidase activity was measured by adding about 100 μL/well of ABTS solution (about 0.4 mg/mL of 2,2′ azino-di(3-ethylbenzthiazoline-6-sulfonic acid), about 0.003% of H2O2, about 100 mM of phosphate-citrate, pH 4.0) for about 30 min at room temperature.

[2] = biological target: T1, mβG-eB7 (Mus musculus, UniProt P12265, G265D/I320V); experiment: ^124I-trap-glu conversion by CT26/mβG-eB7 or CT26 cells, bound radioactivity in gamma-counter; type: cell-based; details: graded concentrations, room temperature, about 40 mins
T1 construct: expressed in transfected cells
T1 sequence (P12265 with tags, fused parts or gaps G265D/I320V): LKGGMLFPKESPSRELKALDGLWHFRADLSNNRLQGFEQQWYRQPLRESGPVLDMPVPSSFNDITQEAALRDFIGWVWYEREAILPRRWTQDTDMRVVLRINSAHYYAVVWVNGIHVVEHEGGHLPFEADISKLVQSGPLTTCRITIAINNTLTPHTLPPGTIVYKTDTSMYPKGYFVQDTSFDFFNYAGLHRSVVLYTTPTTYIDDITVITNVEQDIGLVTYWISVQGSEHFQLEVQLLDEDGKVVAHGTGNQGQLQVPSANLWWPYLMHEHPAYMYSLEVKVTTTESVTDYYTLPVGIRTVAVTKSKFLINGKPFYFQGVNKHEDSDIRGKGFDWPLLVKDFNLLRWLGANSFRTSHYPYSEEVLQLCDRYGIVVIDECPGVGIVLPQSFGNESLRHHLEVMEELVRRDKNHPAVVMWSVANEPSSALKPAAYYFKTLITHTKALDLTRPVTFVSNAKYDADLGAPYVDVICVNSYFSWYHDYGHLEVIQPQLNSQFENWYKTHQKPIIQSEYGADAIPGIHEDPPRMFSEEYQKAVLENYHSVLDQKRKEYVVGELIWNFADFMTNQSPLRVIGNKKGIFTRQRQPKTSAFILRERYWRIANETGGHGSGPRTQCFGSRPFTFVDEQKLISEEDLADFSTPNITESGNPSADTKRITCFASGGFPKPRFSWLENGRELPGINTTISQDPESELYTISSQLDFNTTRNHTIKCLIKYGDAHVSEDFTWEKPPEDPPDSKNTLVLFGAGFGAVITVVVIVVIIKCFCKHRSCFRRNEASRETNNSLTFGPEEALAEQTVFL
Procedure: Graded concentrations of the ^124I-trap-glu probe/substrate were incubated with CT26/mβG-eB7 (▪) or CT26 cells (□) in phosphate-buffer saline at room temperature for about 40 mins. The plates containing the transfected cells were washed and bound radioactivity was measured in a gamma-counter.

[3] = biological target: T1, mβG-eB7; experiment: ^124I-ph-trap-glu conversion by CT26/mβG-eB7 or CT26 cells, cell radioactivity in gamma-counter; type: cell-based; details: graded concentrations, room temperature, about 40 mins
Procedure: Graded concentrations of the ^124I-trap-glu probe was added to 96-well microtiter plates coated with CT26/mβG-eB7 (▪) or CT26 cells (□) in phosphate-buffered saline at room temperature for about 40 mins. The plates were then washed to remove non-precipitated probes and the cells were collected by treatment with trypsin. The radioactivity of cells was then measured in a gamma-counter.

[4] = biological target: T1, mβG-eB7; experiment: In vivo whole-body optical imaging of FDGlcU activation in mice bearing CT26 and CT26/mβG-eB7 tumors; details: Balb/c mice, 500 μg i.v.
Procedure: To investigate whether expression sites of membrane bound β-glucuronidase reporter system could be non-invasively detected (in vivo imaging), Balb/c mice bearing established CT26 and CT26/mβG-eB7 colon tumors in their left and right chest regions, respectively, were intravenously injected with about 500 μg of non-fluorescent FDGlcU. Whole-body images of the mice were acquired by performing 3 minute scans.
As an example, Balb/c mice (n=3) bearing established CT26 and CT26/mβG tumors (200-300 mm^3) in their left and right chest regions, respectively, were i.v. injected with 500 μg FDGlcU. Whole-body images of pentobarbital-anesthetized mice were obtained by performing 3 minutes scans over 90 minutes on a Kodak IS2000MM optical imaging system. The fluorescence intensities were analyzed with KODAK 1D Image Analysis Software.
The distribution of activated FDGlcU in CT26 (open circle) and CT26/mβG-eB7 (black dot) tumors (n=4) was determined by measuring fluorescence intensities in 3 minute scans performed over 90 minutes.

[5] = biological target: T1, mβG-eB7; experiment: FDGlcU staining of HCC36 cells infected with Ad5/mβG-eB7, flow cytometer; type: cell-based
From the text: HCC36 cells (open curve) and HCC36 cells infected with Ad5/mβG-eB7 (solid curve) were stained for the presence of the […] epitope in mβG-eB7 (left panel) or directly stained with FDGlcU (right panel) and then analyzed on a flow cytometer.
As shown by staining of membrane β-glucuronidase with anti-myc antibody in the left panel of FIG. 10, HCC36 cells were successfully infected with Ad5/mβG-eB7.

[6] = biological target: T1, mβG-eB7; experiment: In vivo imaging of FDGlcU in nude mice with HCC36 tumors injected with Ad5/mβG-eB7; details: 10^9 pfu intratumoral, FDGlcU i.v. two days later
Procedure: To image Ad5/mβG-eB7, nude mice (n=3) bearing established HCC36 tumors (200-300 mm^3) in their left and right chest's regions were injected in the right HCC36 tumor with 10^9 pfu of Ad5/mβG-eB7 in 50 μl of phosphate-buffered saline (PBS). Two days later, the mice were i.v. injected with 500 μg of FDGlcU. Whole-body images were obtained in 3 min scans over 2 hour.
After the tumors grew, 10^9 pfu of Ad5/mβG-eB7 was directly injected into the HCC36 tumor on the right side of the mouse. Two days later, the mouse was i.v. injected with FDGlcU and whole-body optical imaging was performed.
Tumor cells were collected 30 minutes after FDGlcU injection were stained with X-GlcA and nuclear fast red and then viewed under phase contrast and fluorescence microscopes.

[7] = biological target: T1, mβG-eB7; experiment: Biodistribution by optical imaging of whole-body frozen sections after i.v. FDGlcU or fluorescein; type: in vivo; details: 30 minutes after i.v. injection of 500 μg
Procedure: In vivo biodistribution of fluorescein was measured around 30 minutes after i.v. injection of the substrate, FDGlcU, (left panel) or fluorescein (right panel). The biodistribution of activated FDGlcU was examined by killing tumor-bearing mice 30 minutes after they received an injection of FDGlcU or fluorescein and then performing optical imaging of whole-body frozen sections. The intensity of the fluorescence of whole-body sections was measured with the IVIS® Imaging System 50 (Xenogen, Alameda, Calif.).
For example, mice (n=3) were i.v. injected with 500 μg FDGlcU or fluorescein 30 min before the mice were dipped into isopentane at liquid nitrogen temperatures and embedded on a cryostat holder (7×5 cm) in 4% carboxylmethylcellulose. The fluorescence signals of 30 μm whole-body sections were measured on a IVIS® Imaging System 50 (Xenogen, Alameda, Calif.) and the regions of interest were analyzed with Living Image® software (Xenogen).
FIG. 9 is a graph showing a comparison of the results of the example of FIG. 8 in different organ regions of interest according to one embodiment of the invention. After i.v. injection of FDGlcU or fluorescein, mice were analyzed with Living Image® software. […] The fluorescent intensity in CT26/mβG-eB7 tumors was about 240 times greater than in the CT26 tumors (FIG. 9). Fluorescent signals were also observed in the intestinal tract.

[8] = biological target: T1, mβG-eB7; experiment: FDGlcU hydrolysis on live CT26 and CT26/mβG-eB7 cells, confocal microscopy; type: cell-based; details: 40 μM FDGlcU, pH 6.5, 37° C., 40 minutes
Procedure: For example, functional expression of membrane bound β-glucuronidase on a host cell can be measured by incubating the host cells (with and without the recombinant reporter gene systems, such as CT26 or CT26/mβG-eB7 cells) with 40 μM FDGlcU (Invitrogen, Calsbad, Calif.) in phosphate-buffered saline containing 0.1% BSA, pH 6.5 at 37° C. for 40 minutes and then staining the cells with anti-myc antibody (5 μg/ml, clone Myc 1-9EIO.2, American Type Culture Collection, Manassas, Va.) at about 4° C. for about 1 hour. The cells can be washed with cold phosphate-buffered saline and incubated with rhodamine-conjugated rabbit anti-mouse IgG antibody (5 μg/ml) at about 4° C. for about 1 hour. The cells are then washed with cold phosphate-buffered saline, mounted with fluorescence mounting medium (anti fade; DakoCytomation, Carpinteria, Calif.), and viewed under a digital fluorescence confocal microscope.

[9] = biological target: T2, hβG-eB7 (UniProt P08236+Q00609, L649P); experiment: In vivo imaging of FDGlcU in nude mice bearing EJ and EJ/hβG-eB7 tumors; set-up: species or system human; details: 500 μg i.v.
T2 construct: expressed in transfected cells; host or cells: EJ human bladder carcinoma cells, retroviral transduction with pLNCX-hβG-eB7; tumours in nude mice
T2 sequence (P08236+Q00609 with tags, fused parts or gaps P08236:L649P): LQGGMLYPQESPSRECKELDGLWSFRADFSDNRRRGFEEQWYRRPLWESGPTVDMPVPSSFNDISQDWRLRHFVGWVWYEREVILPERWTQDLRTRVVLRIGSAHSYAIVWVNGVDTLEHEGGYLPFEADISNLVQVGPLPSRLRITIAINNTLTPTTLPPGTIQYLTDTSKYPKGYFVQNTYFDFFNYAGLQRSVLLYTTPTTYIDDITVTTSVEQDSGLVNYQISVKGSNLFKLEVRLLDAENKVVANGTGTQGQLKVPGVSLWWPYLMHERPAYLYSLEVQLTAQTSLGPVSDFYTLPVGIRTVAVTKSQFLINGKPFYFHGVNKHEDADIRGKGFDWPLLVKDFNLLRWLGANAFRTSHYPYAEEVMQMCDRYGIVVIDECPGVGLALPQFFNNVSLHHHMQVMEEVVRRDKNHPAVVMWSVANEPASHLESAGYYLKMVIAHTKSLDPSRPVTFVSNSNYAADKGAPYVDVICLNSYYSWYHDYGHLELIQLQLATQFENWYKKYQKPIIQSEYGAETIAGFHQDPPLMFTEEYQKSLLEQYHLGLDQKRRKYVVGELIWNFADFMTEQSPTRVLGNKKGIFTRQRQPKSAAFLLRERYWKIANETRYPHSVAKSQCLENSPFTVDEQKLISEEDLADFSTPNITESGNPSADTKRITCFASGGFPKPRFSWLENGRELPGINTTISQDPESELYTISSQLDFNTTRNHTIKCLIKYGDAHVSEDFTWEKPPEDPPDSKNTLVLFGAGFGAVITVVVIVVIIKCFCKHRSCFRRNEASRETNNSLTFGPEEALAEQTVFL
Procedure: Retroviral vector pLNCX-hβG-eB7 was constructed and infected to EJ human bladder carcinoma cells (EJ/hβG-eB7) to express functionally active human β-glucuronidase on the membrane. hβG-eB7 was imaged in nude mice (n=3) bearing established EJ and EJ/hβG-eB7 tumors (200-300 mm^3) in their left and right chest regions, respectively, by i.v. injecting 500 μg FDGlcU and performing imaging and histological analysis of fluorescent intensity and βG activity as described above.
FDGlcU was i.v. injected into mice bearing EJ (left) and EJ/hβG-eB7 (right) tumors and whole-body images were acquired at the indicated times (3 mins, 30 mins, 60 mins). […] Live EJ cells (open curve) and EJ/hβG-eB7 cells (solid curve) were immunofluorescence stained for the myc epitope (left panel) or incubated with FDGlcU (right panel), respectively, and analyzed on a flow cytometer.

Sequence of Recombinant E. coli β-glucuronidase (P05804 whole entry): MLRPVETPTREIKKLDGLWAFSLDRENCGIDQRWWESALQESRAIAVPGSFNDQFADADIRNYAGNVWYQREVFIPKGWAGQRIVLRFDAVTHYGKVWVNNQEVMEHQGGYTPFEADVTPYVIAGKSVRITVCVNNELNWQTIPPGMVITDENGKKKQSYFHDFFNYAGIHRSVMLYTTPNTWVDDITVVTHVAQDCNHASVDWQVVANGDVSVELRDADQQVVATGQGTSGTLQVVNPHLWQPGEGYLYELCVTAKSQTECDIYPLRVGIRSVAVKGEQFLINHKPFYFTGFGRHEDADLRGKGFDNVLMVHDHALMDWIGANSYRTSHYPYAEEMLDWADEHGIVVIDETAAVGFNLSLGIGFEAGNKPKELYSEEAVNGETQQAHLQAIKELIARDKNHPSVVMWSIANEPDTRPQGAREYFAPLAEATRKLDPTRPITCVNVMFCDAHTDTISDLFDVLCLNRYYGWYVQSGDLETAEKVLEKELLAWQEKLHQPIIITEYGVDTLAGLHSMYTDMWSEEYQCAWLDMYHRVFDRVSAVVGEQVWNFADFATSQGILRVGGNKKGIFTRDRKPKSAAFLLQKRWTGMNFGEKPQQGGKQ

## N-fluorescein-isothiocyanato (3-difluoromethylphenyl)-β-D-glucopyronuronate [FITC-trap-glu]
[1]
  trapping by β-glucuronidase detected by anti-FITC antibody: specific trapping

## ^124I-difluoromethylphenol glucuronide [^124I-trap-glu]
[2]
  conversion of probe to ^124I-trap product in CT26/mβG-eB7 vs CT26 cells: specifically converts

## ^124I-phenolphthalin glucuronide [^124I-ph-trap-glu]
[3]
  conversion of probe to ^124I-trap reporter product in CT26/mβG-eB7 vs CT26 cells: specifically converts

## O=C1OC2(c3ccc(O[C@@H]4O[C@H](C(=O)O)[C@@H](O)[C@H](O)[C@H]4O)cc3Oc3cc(O[C@@H]4O[C@H](C(=O)O)[C@@H](O)[C@H](O)[C@H]4O)ccc32)c2ccccc21 [FDGlcU, fluorescein di-β-D-glucuronide]
[4]; 3 minute scans over 90 minutes
  time of highest fluorescence after FDGlcU injection: 30 min
[4]; whole-body images at 3, 30, 60 mins
  conversion of FDGlcU to fluorescein in CT26/mβG tumors vs control CT26 tumors: selectively converted to fluorescein
[5]
  activation of FDGlcU at Ad5/mβG-eB7 infected HCC36 cells: activated to fluorescent product at the infected cells
[6]
  fluorescence of Ad5/mβG-eB7 injected HCC36 tumor vs non-infected HCC36 tumors: obvious fluorescence
[7]; whole-body sections
  fluorescent intensity in CT26/mβG-eB7 tumors relative to CT26 tumors: about 240 times
[8]
  conversion of FDGlcU to fluorescein on cells: only CT26/mβG-e-B7 cells
[9]
  conversion to fluorescent reporter in EJ/hβG-eB7 vs control EJ tumors: preferentially converted to a fluorescent reporter in EJ/hβG-eB7 tumors but not in control tumors

## O=C1OC2(c3ccc(O)cc3Oc3cc(O)ccc32)c2ccccc21 [fluorescein]
[7]; tumor-bearing mice
  in vivo biodistribution: largely accumulated in the intestinal tract and kidneys
